ChEMBL document CHEMBL4400520, “Benzofuran-isatin-imine hybrids tethered via different length alkyl linkers: Design, synthesis and in vitro evaluation of anti-tubercular and anti-bacterial activities as well as cytotoxicity” (Eur J Med Chem, 2019)
Values after ≈ are worked out from the molar mass of the structure shown.

Legend:
[1] = Selectivity index, ratio of CC50 for African green monkey Vero cells to MIC for Mycobacterium tuberculosis H37Rv; type: toxicity; conditions: read-out: Selectivity Index
[2] = test system: Klebsiella pneumoniae; assay: Antibacterial activity against Klebsiella pneumoniae; type: functional
[3] = test system: Klebsiella aerogenes; assay: Antibacterial activity against Enterobacter aerogenes; type: functional
[4] = test system: Staphylococcus aureus; assay: Antibacterial activity against methicillin-resistant Staphylococcus aureus; type: functional
[5] = test system: Pseudomonas aeruginosa; assay: Antibacterial activity against Pseudomonas aeruginosa ATCC 27853; type: functional
[6] = test system: Proteus mirabilis; assay: Antibacterial activity against Proteus mirabilis; type: functional
[7] = test system: Staphylococcus epidermidis; assay: Antibacterial activity against methicillin-sensitive Staphylococcus epidermidis; type: functional
[8] = Cytotoxicity against African green monkey Vero cells assessed as reduction in cell viability after 72 hrs by MTT assay; type: cell-based; conditions: chlorocebus sabaeus, Vero cells
[9] = test system: Mycobacterium tuberculosis; assay: Antitubercular activity against Mycobacterium tuberculosis H37Rv; type: functional
[10] = test system: Acinetobacter calcoaceticus; assay: Antibacterial activity against Acinetobacter calcoaceticus; type: functional
[11] = test system: Escherichia coli; assay: Antibacterial activity against Escherichia coli; type: functional
[12] = test system: Staphylococcus aureus; assay: Antibacterial activity against methicillin-sensitive Staphylococcus aureus; type: functional
[13] = test system: Staphylococcus epidermidis; assay: Antibacterial activity against methicillin-resistant Staphylococcus epidermidis; type: functional
[14] = test system: Enterococcus faecium; assay: Antibacterial activity against Enterococcus faecium; type: functional
[15] = test system: Citrobacter freundii; assay: Antibacterial activity against Citrobacter freundii; type: functional
[16] = test system: Enterococcus faecalis; assay: Antibacterial activity against Enterococcus faecalis; type: functional
[17] = test system: Enterobacter cloacae; assay: Antibacterial activity against Enterobacter cloacae; type: functional

Structure (SMILES): CCOC(=O)c1c(-c2ccccc2)oc2ccc(OCCCN3C(=O)/C(=N\OC)c4cc(OC)ccc43)cc12
- selectivity ratio [1]: > 4000
- MIC90 [2]: 0.5 µg/mL (≈ 0.946 µM)
- MIC90 [3]: 2 µg/mL (≈ 3.78 µM)
- MIC90 [4]: 4 µg/mL (≈ 7.57 µM)
- MIC90 [5]: 1 µg/mL (≈ 1.89 µM)
- MIC90 [6]: 2 µg/mL (≈ 3.78 µM)
- MIC90 [7]: 0.5 µg/mL (≈ 0.946 µM)
- CC50 at 72 h [8]: 64 µg/mL (≈ 121 µM)
- MIC [9]: < 0.016 µg/mL
- MIC90 [10]: 2 µg/mL (≈ 3.78 µM)
- MIC90 [11]: 0.125 µg/mL (≈ 0.236 µM)
- MIC90 [12]: 1 µg/mL (≈ 1.89 µM)
- MIC90 [13]: 0.5 µg/mL (≈ 0.946 µM)
- MIC90 [14]: 16 µg/mL (≈ 30.3 µM)
- MIC90 [15]: 0.5 µg/mL (≈ 0.946 µM)
- MIC90 [16]: 1 µg/mL (≈ 1.89 µM)
- MIC90 [17]: 0.5 µg/mL (≈ 0.946 µM)

Structure (SMILES): CCOC(=O)c1c(-c2ccc(F)cc2)oc2ccc(OCCCCCCN3C(=O)C(=O)c4cc(F)ccc43)cc12
- selectivity ratio [1]: > 32000
- MIC90 [2]: 1 µg/mL (≈ 1.83 µM)
- MIC90 [3]: 0.125 µg/mL (≈ 0.228 µM)
- MIC90 [4]: 2 µg/mL (≈ 3.65 µM)
- MIC90 [5]: 2 µg/mL (≈ 3.65 µM)
- MIC90 [6]: 0.06 µg/mL (≈ 0.11 µM)
- MIC90 [7]: 1 µg/mL (≈ 1.83 µM)
- CC50 at 72 h [8]: 512 µg/mL (≈ 935 µM)
- MIC [9]: < 0.016 µg/mL
- MIC90 [10]: 4 µg/mL (≈ 7.31 µM)
- MIC90 [11]: 0.25 µg/mL (≈ 0.457 µM)
- MIC90 [12]: 1 µg/mL (≈ 1.83 µM)
- MIC90 [13]: 4 µg/mL (≈ 7.31 µM)
- MIC90 [14]: 16 µg/mL (≈ 29.2 µM)
- MIC90 [15]: 0.06 µg/mL (≈ 0.11 µM)
- MIC90 [16]: 2 µg/mL (≈ 3.65 µM)
- MIC90 [17]: 0.5 µg/mL (≈ 0.913 µM)

Structure (SMILES): CCOC(=O)c1c(-c2ccc(OC)cc2)oc2ccc(OCCCCCN3C(=O)C(=O)c4cc(F)ccc43)cc12
- selectivity ratio [1]: 8000
- MIC90 [2]: 2 µg/mL (≈ 3.67 µM)
- MIC90 [3]: 1 µg/mL (≈ 1.83 µM)
- MIC90 [4]: 2 µg/mL (≈ 3.67 µM)
- MIC90 [5]: 8 µg/mL (≈ 14.7 µM)
- MIC90 [6]: 0.25 µg/mL (≈ 0.458 µM)
- MIC90 [7]: 1 µg/mL (≈ 1.83 µM)
- CC50 at 72 h [8]: 512 µg/mL (≈ 938 µM)
- MIC [9]: 0.064 µg/mL (≈ 0.117 µM)
- MIC90 [10]: 8 µg/mL (≈ 14.7 µM)
- MIC90 [11]: 0.25 µg/mL (≈ 0.458 µM)
- MIC90 [12]: 2 µg/mL (≈ 3.67 µM)
- MIC90 [13]: 8 µg/mL (≈ 14.7 µM)
- MIC90 [14]: 64 µg/mL (≈ 117 µM)
- MIC90 [15]: 1 µg/mL (≈ 1.83 µM)
- MIC90 [16]: 4 µg/mL (≈ 7.33 µM)
- MIC90 [17]: 1 µg/mL (≈ 1.83 µM)

Structure (SMILES): CCOC(=O)c1c(-c2ccc(OC)cc2)oc2ccc(OCCCN3C(=O)/C(=N\OC)c4cc(OC)ccc43)cc12
- selectivity ratio [1]: > 8000
- MIC90 [2]: 1 µg/mL (≈ 1.79 µM)
- MIC90 [3]: 0.125 µg/mL (≈ 0.224 µM)
- MIC90 [4]: 2 µg/mL (≈ 3.58 µM)
- MIC90 [5]: 1 µg/mL (≈ 1.79 µM)
- MIC90 [6]: 0.25 µg/mL (≈ 0.448 µM)
- MIC90 [7]: 0.25 µg/mL (≈ 0.448 µM)
- CC50 at 72 h [8]: 128 µg/mL (≈ 229 µM)
- MIC [9]: < 0.016 µg/mL
- MIC90 [10]: 4 µg/mL (≈ 7.16 µM)
- MIC90 [11]: 0.25 µg/mL (≈ 0.448 µM)
- MIC90 [12]: 4 µg/mL (≈ 7.16 µM)
- MIC90 [13]: 2 µg/mL (≈ 3.58 µM)
- MIC90 [14]: 8 µg/mL (≈ 14.3 µM)
- MIC90 [15]: 0.5 µg/mL (≈ 0.895 µM)
- MIC90 [16]: 1 µg/mL (≈ 1.79 µM)
- MIC90 [17]: 0.25 µg/mL (≈ 0.448 µM)

Structure (SMILES): CCOC(=O)c1c(-c2ccc(OC)cc2)oc2ccc(OCCCCN3C(=O)/C(=N\OC)c4cc(F)ccc43)cc12
- selectivity ratio [1]: 1030
- MIC90 [2]: 2 µg/mL (≈ 3.57 µM)
- MIC90 [3]: 0.5 µg/mL (≈ 0.892 µM)
- MIC90 [4]: 4 µg/mL (≈ 7.14 µM)
- MIC90 [5]: 8 µg/mL (≈ 14.3 µM)
- MIC90 [6]: 0.25 µg/mL (≈ 0.446 µM)
- MIC90 [7]: 0.5 µg/mL (≈ 0.892 µM)
- CC50 at 72 h [8]: 32 µg/mL (≈ 57.1 µM)
- MIC [9]: 0.031 µg/mL (≈ 0.0553 µM)
- MIC90 [10]: 4 µg/mL (≈ 7.14 µM)
- MIC90 [11]: 0.25 µg/mL (≈ 0.446 µM)
- MIC90 [12]: 1 µg/mL (≈ 1.78 µM)
- MIC90 [13]: 2 µg/mL (≈ 3.57 µM)
- MIC90 [14]: 16 µg/mL (≈ 28.5 µM)
- MIC90 [15]: 0.25 µg/mL (≈ 0.446 µM)
- MIC90 [16]: 2 µg/mL (≈ 3.57 µM)
- MIC90 [17]: 0.5 µg/mL (≈ 0.892 µM)

Structure (SMILES): CCOC(=O)c1c(-c2ccc(OC)cc2)oc2ccc(OCCCCCCN3C(=O)C(=O)c4ccccc43)cc12
- selectivity ratio [1]: 4130
- MIC90 [2]: 0.5 µg/mL (≈ 0.923 µM)
- MIC90 [3]: 0.5 µg/mL (≈ 0.923 µM)
- MIC90 [4]: 1 µg/mL (≈ 1.85 µM)
- MIC90 [5]: 4 µg/mL (≈ 7.39 µM)
- MIC90 [6]: 0.125 µg/mL (≈ 0.231 µM)
- MIC90 [7]: 0.25 µg/mL (≈ 0.462 µM)
- CC50 at 72 h [8]: 256 µg/mL (≈ 473 µM)
- MIC [9]: 0.062 µg/mL (≈ 0.114 µM)
- MIC90 [10]: 2 µg/mL (≈ 3.69 µM)
- MIC90 [11]: 0.06 µg/mL (≈ 0.111 µM)
- MIC90 [12]: 1 µg/mL (≈ 1.85 µM)
- MIC90 [13]: 4 µg/mL (≈ 7.39 µM)
- MIC90 [14]: 8 µg/mL (≈ 14.8 µM)
- MIC90 [15]: 0.25 µg/mL (≈ 0.462 µM)
- MIC90 [16]: 2 µg/mL (≈ 3.69 µM)
- MIC90 [17]: 0.125 µg/mL (≈ 0.231 µM)

Structure (SMILES): CCOC(=O)c1c(-c2ccc(OC)cc2)oc2ccc(OCCCCCCN3C(=O)C(=O)c4cc(F)ccc43)cc12
- selectivity ratio [1]: > 64000
- MIC90 [2]: 1 µg/mL (≈ 1.79 µM)
- MIC90 [3]: 0.25 µg/mL (≈ 0.447 µM)
- MIC90 [4]: 2 µg/mL (≈ 3.57 µM)
- MIC90 [5]: 4 µg/mL (≈ 7.15 µM)
- MIC90 [6]: 0.125 µg/mL (≈ 0.223 µM)
- MIC90 [7]: 1 µg/mL (≈ 1.79 µM)
- CC50 at 72 h [8]: 1020 µg/mL (≈ 1830 µM)
- MIC [9]: < 0.016 µg/mL
- MIC90 [10]: 4 µg/mL (≈ 7.15 µM)
- MIC90 [11]: 0.125 µg/mL (≈ 0.223 µM)
- MIC90 [12]: 2 µg/mL (≈ 3.57 µM)
- MIC90 [13]: 8 µg/mL (≈ 14.3 µM)
- MIC90 [14]: 16 µg/mL (≈ 28.6 µM)
- MIC90 [15]: 1 µg/mL (≈ 1.79 µM)
- MIC90 [16]: 2 µg/mL (≈ 3.57 µM)
- MIC90 [17]: 0.5 µg/mL (≈ 0.894 µM)
